The target in one assay is T1, Papain (Carica papaya, UniProt P00784).
T1 sequence (P00784 whole entry): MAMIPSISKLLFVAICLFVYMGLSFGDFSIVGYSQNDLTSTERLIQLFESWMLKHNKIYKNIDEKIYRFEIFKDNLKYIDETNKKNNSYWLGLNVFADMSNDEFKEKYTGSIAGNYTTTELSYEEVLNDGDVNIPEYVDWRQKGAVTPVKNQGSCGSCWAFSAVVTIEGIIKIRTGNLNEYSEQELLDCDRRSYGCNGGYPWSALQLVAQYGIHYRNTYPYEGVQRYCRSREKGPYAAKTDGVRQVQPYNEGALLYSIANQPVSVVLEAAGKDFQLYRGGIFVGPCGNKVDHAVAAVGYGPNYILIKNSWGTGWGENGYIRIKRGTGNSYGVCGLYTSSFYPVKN
Description: In vitro inhibition of papain.

Another assay deals with T2, Cathepsin K (Homo sapiens, UniProt P43235).
T2 sequence (P43235 whole entry): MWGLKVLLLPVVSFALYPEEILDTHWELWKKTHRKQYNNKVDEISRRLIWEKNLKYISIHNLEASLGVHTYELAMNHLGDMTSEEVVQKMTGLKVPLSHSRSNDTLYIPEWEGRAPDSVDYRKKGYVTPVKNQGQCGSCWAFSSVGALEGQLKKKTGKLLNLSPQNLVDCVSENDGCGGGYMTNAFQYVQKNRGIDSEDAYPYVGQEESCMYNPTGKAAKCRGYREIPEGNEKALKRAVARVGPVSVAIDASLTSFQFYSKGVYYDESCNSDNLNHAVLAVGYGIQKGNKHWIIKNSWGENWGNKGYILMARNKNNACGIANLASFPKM
Description: Inhibition of Human Cathepsin K.

A further assay addresses Cathepsin B (Homo sapiens, UniProt P07858). Description: Inhibition of Human Cathepsin B.
The next assay has as its target T3, Papain (Carica papaya) (UniProt P00784).
T3 sequence (whole entry): T1 sequence (P00784 whole entry)
As to the kind of experiment: Evaluated for inhibitory activity against papain; No inhibition.

Each structure is given as a SMILES string. pKi: −log10 of the molar value. Active and inactive are the calls of the source. No cut-off for these calls is given here. Non-standard residues stand in square brackets, D forms with d. Residues, ends and D or L forms follow the SMILES beside them. *: point of attachment. 1Nal = N[C@@H](Cc1cccc2ccccc12)C(=O)O; Cbz = O=C(OCc1ccccc1)*; NHBn = c1ccc(CN*)cc1; OBn = c1ccc(CO*)cc1; azaGly = NNC(=O)O

At Papain, `COC(=O)[C@@H](NC(=O)NNC(=O)[C@H](Cc1ccccc1)NC(C)=O)C(C)C` showed a pKi of 7.21.

Consider `CCOC(=O)[C@@H](NC(=O)NNC(=O)[C@H](Cc1ccccc1)NC(C)=O)C(C)C`, for which the pKi at Papain is 7.70.

Turning to `CC[C@H](C)[C@H](NC(=O)NNC(=O)[C@H](Cc1cnc[nH]1)NC(=O)[C@H](CC(C)C)NC(=O)[C@H](C)NC(=O)OCc1ccccc1)C(=O)N[C@H](C(=O)OC)C(C)C` (Cbz-ALH[azaGly]IV-OMe), the results for the pKi on Cathepsin K, at Papain and on Cathepsin B were 9.07, 9.24 and 10.52, respectively.

Turning to `CC(C)C[C@H](N)C(=O)N[C@H](C(=O)NNC(=O)N[C@H](C(=O)OCc1ccccc1)C(C)C)C(C)C` (HELM PEPTIDE1{L.V.[O=C(NN[*:1])[*:2]].V.[c1ccc(CO[*:1])cc1]}$$$$V2.0), the NI entry at Papain (Carica papaya) was “inactive”.

In the case of `CC[C@H](C)[C@H](NC(=O)NNC(=O)[C@H](Cc1ccc(OC)cc1)NC(=O)[C@H](CC(C)C)NC(=O)[C@H](C)NC(=O)OCc1ccccc1)C(=O)N[C@H](C(=O)OC)C(C)C` (Cbz-ALY(Me)[azaGly]IV-OMe), the pKi at Cathepsin K is 8.07; at Papain, 9.55; at Cathepsin B it was 8.85.

For `CC(C)C[C@H](NC(=O)OCc1ccccc1)C(=O)N[C@H](C(=O)NNC(=O)N[C@H](C(=O)OCc1ccccc1)C(C)C)C(C)C` (Cbz-LV[azaGly]V-OBn), the pKi on Cathepsin K was 7.47; at Papain it was 8.17; on Cathepsin B, 7.40.

In the case of `CC(C)C[C@H](NC(=O)[C@H](CCCNC(=N)N)NC(=O)OCc1ccccc1)C(=O)N[C@H](C(=O)NNC(=O)N[C@@H](C)C(=O)NCC(N)=O)C(C)C` (HELM PEPTIDE1{[O=C(OCc1ccccc1)[*:2]].R.L.V.[O=C(NN[*:1])[*:2]].A.G.[am]}$$$$V2.0), the figures for the pKi at Cathepsin K, at Papain and on Cathepsin B were 8.17, 9.11 and 8.14, respectively.

As for `CCCCOC(=O)[C@@H](NC(=O)NNC(=O)[C@H](Cc1ccccc1)NC(C)=O)C(C)C`, at Papain, the pKi is 7.23.

As to `CC[C@H](C)[C@H](NC(=O)NNC(=O)[C@H](Cc1ccccc1)NC(=O)[C@H](CC(C)C)NC(=O)[C@H](C)NC(=O)OCc1ccccc1)C(=O)N[C@H](C(=O)OC)C(C)C` (Cbz-ALF[azaGly]IV-OMe), the pKi at Cathepsin K is 9.74; at Papain it was 9.92; on Cathepsin B, 9.89.

Regarding `CC[C@H](C)[C@H](NC(=O)NNC(=O)[C@@H](NC(=O)[C@H](CC(C)C)NC(=O)[C@H](CCCN=C(N)N)NC(=O)OCc1ccccc1)C(C)C)C(=O)N[C@H](C(=O)N[C@@H](Cc1c[nH]c2ccccc12)C(N)=O)C(C)C` (HELM PEPTIDE1{[O=C(OCc1ccccc1)[*:2]].R.L.V.[O=C(NN[*:1])[*:2]].I.V.W.[am]}$$$$V2.0), the values for the pKi at Cathepsin K, on Papain and on Cathepsin B were 7.14, 7.77 and 7.89, respectively.

`CC[C@H](C)[C@H](NC(=O)NNC(=O)[C@H](Cc1cccc2ccccc12)NC(=O)[C@H](CC(C)C)NC(=O)[C@H](C)NC(=O)OCc1ccccc1)C(=O)N[C@H](C(=O)OC)C(C)C` (Cbz-AL[1Nal][azaGly]IV-OMe): the results for the pKi on Cathepsin K, on Papain and on Cathepsin B were 8.24, 10.00 and 8.80, respectively.

As for `CCOC(=O)NNC(=O)[C@@H](NC(=O)[C@H](CC(C)C)NC(=O)OC(C)(C)C)C(C)C`, the pKi was 7.21 on Cathepsin K and 7.62 at Papain.

Consider `CC(C)C[C@H](NC(=O)[C@H](CCCNC(=N)N)NC(=O)OCc1ccccc1)C(=O)N[C@H](C(=O)NNC(=O)N[C@H](C(=O)N[C@@H](C)C(N)=O)C(C)C)C(C)C` (HELM PEPTIDE1{[O=C(OCc1ccccc1)[*:2]].R.L.V.[O=C(NN[*:1])[*:2]].V.A.[am]}$$$$V2.0), for which the negative-log Ki (pKi) was 8.67 at Cathepsin K, 9.25 on Papain and 9.92 on Cathepsin B.

Take `CC(C)C(NC(=O)NNC(=O)OC(C)(C)C)C(=O)OCc1ccccc1` (stereo not given): the NI result on Papain (Carica papaya) is “inactive”.

For the compound `CC(=O)N[C@@H](Cc1ccccc1)C(=O)NNC(=O)N[C@H](C(=O)NCc1ccccc1)C(C)C`, at Papain, the pKi is 7.52.

Take `CNC(=O)[C@@H](NC(=O)NNC(=O)[C@H](Cc1ccccc1)NC(C)=O)C(C)C`: on Papain, the pKi was 7.49.

As to `CC(C)C[C@H](NC(=O)[C@H](CCCNC(=N)N)NC(=O)OCc1ccccc1)C(=O)N[C@H](C(=O)NNC(=O)N[C@@H](Cc1c[nH]c2ccccc12)C(=O)N[C@H](C(=O)N[C@@H](C)C(N)=O)C(C)C)C(C)C` (HELM PEPTIDE1{[O=C(OCc1ccccc1)[*:2]].R.L.V.[O=C(NN[*:1])[*:2]].W.V.A.[am]}$$$$V2.0), the values for the pKi at Cathepsin K, on Papain and on Cathepsin B were 7.00, 7.00 and 7.37, respectively.

As to `CC(C)C[C@H](NC(=O)[C@H](CCCN=C(N)N)NC(=O)OCc1ccccc1)C(=O)N[C@@H](Cc1ccccc1)C(=O)NNC(=O)N[C@H](C(=O)OCc1ccccc1)C(C)C` (Cbz-RLF[azaGly]V-OBn), the NI entry at Papain (Carica papaya) is “inactive”.

For the compound `CC(=O)N[C@@H](Cc1ccccc1)C(=O)NNC(=O)N[C@H](C(=O)O)C(C)C`, the NA entry on Papain (Carica papaya) was “inactive”.

`CC(=O)N[C@@H](Cc1ccccc1)C(=O)NNC(=O)N[C@H](C(=O)OCc1ccccc1)C(C)C` showed a pKi at Papain of 7.68.

In the case of `CC[C@H](C)[C@H](NC(=O)NNC(=O)[C@@H](NC(=O)[C@H](CC(C)C)NC(=O)[C@H](C)NC(=O)OCc1ccccc1)[C@@H](C)CC)C(=O)N[C@H](C(=O)NCc1ccccc1)C(C)C` (Cbz-ALI[azaGly]IV-NHBn), the pKi at Cathepsin K was 8.61; on Papain, 8.87; at Cathepsin B, 9.60.

Consider `CC[C@H](C)[C@H](NC(=O)NNC(=O)[C@@H](NC(=O)[C@H](CC(C)C)NC(=O)[C@H](C)NC(=O)OCc1ccccc1)[C@@H](C)CC)C(=O)N[C@H](C(=O)OC)C(C)C` (Cbz-ALI[azaGly]IV-OMe), for which the pKi on Cathepsin K is 8.67; at Papain, 9.02; on Cathepsin B, 9.52.

With `CCCCNC(=O)[C@@H](NC(=O)NNC(=O)[C@H](Cc1ccccc1)NC(C)=O)C(C)C`, the pKi at Papain was 7.55.

As for `CC(C)C[C@H](NC(=O)OCc1ccccc1)C(=O)N[C@@H](Cc1ccccc1)C(=O)NNC(=O)N[C@H](C(=O)OCc1ccccc1)C(C)C` (Cbz-LF[azaGly]V-OBn), at Papain (Carica papaya), the NI result is “inactive”.

Take `CC[C@H](C)[C@H](NC(=O)NNC(=O)[C@@H](NC(=O)[C@H](CC(C)C)NC(=O)[C@H](CCCN=C(N)N)NC(=O)OCc1ccccc1)C(C)C)C(=O)N[C@H](C(=O)OC)C(C)C` (Cbz-RLV[azaGly]IV-OMe): the figures for the pKi at Cathepsin K, on Papain and at Cathepsin B were 7.68, 9.11 and 10.06, respectively.

Source of the values: ChEMBL document CHEMBL1136001, “Azapeptides structurally based upon inhibitory sites of cystatins as potent and selective inhibitors of cysteine proteases” (J Med Chem, 2002).
